In ChEMBL document CHEMBL3272096, “Semisynthetic cephalosporins. Synthesis and structure-activity relationships of 7-sulfonylacetamido-3-cephem-4-carboxylic acids” (1976):
Values after ≈ are worked out from the molar mass of the structure shown. Active and inactive are the calls of the source. No cut-off for these calls is given here.

Experiments:
Enterococcus faecalis = experiment: Antibacterial activity against Streptococcus faecalis by two-fold agar dilution method; format: functional
Pseudomonas aeruginosa = experiment: Antibacterial activity against Pseudomonas aeruginosa by two-fold agar dilution method; format: functional, organism-based
Staphylococcus aureus [1] = experiment: Antibacterial activity against penicillin G-resistant Staphylococcus aureus HH 127 by two-fold agar dilution method; format: functional
Escherichia coli [2] = experiment: Antibacterial activity against Escherichia coli 12140 by two-fold agar dilution method; format: functional
Klebsiella pneumoniae = experiment: Antibacterial activity against Klebsiella pneumoniae 4200 by two-fold agar dilution method; format: functional
Salmonella paratyphi = experiment: Antibacterial activity against Salmonella paratyphi ATCC 12176 by two-fold agar dilution method; format: functional, Salmonella enterica subsp. enterica serovar Paratyphi A; conditions: Salmonella enterica
Shigella flexneri = experiment: Antibacterial activity against Shigella paradysenteriae HH 117 by two-fold agar dilution method; format: functional
Klebsiella aerogenes = experiment: Antibacterial activity against Enterobacter aerogenes ATCC 13048 by two-fold agar dilution method; format: functional
Escherichia coli [3] = experiment: Antibacterial activity against Escherichia coli 12140 infected in sc dosed mouse assessed as host protection administered at 1 and 5 hrs post-infection; format: functional; conditions: Escherichia coli, 12140, sc; read-out: PD50
Staphylococcus aureus [4] = experiment: Antibacterial activity against Staphylococcus aureus 23390 by two-fold agar dilution method; format: functional, organism-based

| SMILES | MIC (Enterococcus faecalis) [µg/mL] | Activity (Pseudomonas aeruginosa) | MIC (Staphylococcus aureus [1]) [µg/mL] | MIC (Escherichia coli [2]) [µg/mL] | MIC (Klebsiella pneumoniae) [µg/mL] | MIC (Salmonella paratyphi) [µg/mL] | MIC (Shigella flexneri) [µg/mL] | MIC (Klebsiella aerogenes) [µg/mL] | ED50 (Escherichia coli [3]) [mg/kg] | Activity (Staphylococcus aureus [4]) |
| --- | --- | --- | --- | --- | --- | --- | --- | --- | --- | --- |
| Cc1nnc(SCC2=C(C(=O)[O-])N3C(=O)[C@@H](NC(=O)CS(C)(=O)=O)[C@H]3SC2)[nH]1.[Na+] | > 13 | inactive | 1.6 | 6.2 | 3.1 | 1.6 | 13 | 200 | 10 | Active |
| CC(=O)OCC1=C(C(=O)O)N2C(=O)[C@@H](NC(=O)Cc3cccs3)[C@H]2SC1 [CEPHALOTHIN] | – | – | 0.2 (≈ 0.504 µM) | 3.1 (≈ 7.82 µM) | 3.1 (≈ 7.82 µM) | 1.6 (≈ 4.04 µM) | 6.2 (≈ 15.6 µM) | 50 (≈ 126 µM) | 50 | Active |
| Cc1nnc(SCC2=C(C(=O)[O-])N3C(=O)[C@@H](NC(=O)CS(C)(=O)=O)[C@H]3SC2)s1.[Na+] | > 13 | inactive | 1.6 | 13 | 3.1 | 3.1 | 13 | > 200 | – | Active |
| CC(=O)OCC1=C(C(=O)[O-])N2C(=O)[C@@H](NC(=O)CS(N)(=O)=O)[C@H]2SC1.[Na+] | > 13 | inactive | 1.6 | 50 | 25 | 13 | 25 | 200 | – | Active |
| CC(=O)OCC1=C(C(=O)O)N2C(=O)[C@@H](NC(=O)CS(=O)(=O)C(F)(F)F)[C@H]2SC1 | > 13 | inactive | 6.2 (≈ 13.9 µM) | 6.2 (≈ 13.9 µM) | 6.2 (≈ 13.9 µM) | 6.2 (≈ 13.9 µM) | 13 (≈ 29.1 µM) | 25 (≈ 56 µM) | > 50 | Active |
| CCCS(=O)(=O)CC(=O)N[C@@H]1C(=O)N2C(C(=O)[O-])=C(CSc3nnnn3C)CS[C@H]12.[Na+] | > 13 | inactive | 0.4 | 1.6 | 0.8 | 0.4 | 1.6 | 6.2 | 10 | Active |
| CCS(=O)(=O)CC(=O)N[C@@H]1C(=O)N2C(C(=O)O)=C(CSc3nnc(C)s3)CS[C@H]12 | > 13 | inactive | 0.4 (≈ 0.836 µM) | 3.1 (≈ 6.48 µM) | 1.6 (≈ 3.34 µM) | 1.6 (≈ 3.34 µM) | 6.2 (≈ 13 µM) | 100 (≈ 209 µM) | 8 | Active |
| CS(=O)(=O)CC(=O)N[C@@H]1C(=O)N2C(C(=O)[O-])=C(CSc3nnn[nH]3)CS[C@H]12.[Na+] | > 13 | inactive | 6.2 | 50 | 3.1 | 3.1 | 25 | > 200 | 45 | Active |
| CCCS(=O)(=O)CC(=O)N[C@@H]1C(=O)N2C(C(=O)[O-])=C(CSc3nnc(C)s3)CS[C@H]12.[Na+] | > 13 | inactive | 0.4 | 6.2 | 3.1 | 1.6 | 6.2 | 50 | 25 | Active |
| CC(C(=O)N[C@@H]1C(=O)N2C(C(=O)[O-])=C(CSc3nnnn3C)CS[C@H]12)S(C)(=O)=O.[Na+] (stereo partly drawn) | > 13 | inactive | 3.1 | 6.2 | 6.2 | 6.2 | 3.1 | 13 | 50 | Active |
| CCCS(=O)(=O)CC(=O)N[C@@H]1C(=O)N2C(C(=O)O)=C(COC(C)=O)CS[C@H]12 | > 13 | inactive | 0.8 (≈ 1.9 µM) | 13 (≈ 30.9 µM) | 6.2 (≈ 14.7 µM) | 3.1 (≈ 7.37 µM) | 13 (≈ 30.9 µM) | 200 (≈ 476 µM) | 56 | Active |
| CCCCS(=O)(=O)CC(=O)N[C@@H]1C(=O)N2C(C(=O)[O-])=C(CSc3nnc(C)s3)CS[C@H]12.[Na+] | > 13 | inactive | 0.1 | 6.2 | 6.2 | 1.6 | 6.2 | 25 | > 50 | Active |
| CCS(=O)(=O)CC(=O)N[C@@H]1C(=O)N2C(C(=O)[O-])=C(CSc3nnnn3C)CS[C@H]12.[Na+] | > 13 | inactive | 0.8 | 1.6 | 1.6 | 0.8 | 1.6 | 100 | 7 | Active |
| Cn1nnnc1SCC1=C(C(=O)[O-])N2C(=O)[C@@H](NC(=O)CS(=O)(=O)C(F)(F)F)[C@H]2SC1.[Na+] | > 13 | inactive | 1.6 | 1.6 | 3.1 | 1.6 | 0.8 | 3.1 | 17 | Active |
| Cn1nnnc1SCC1=C(C(=O)O)N2C(=O)[C@@H](NC(=O)CSC(F)(F)F)[C@H]2SC1 [CEFAZAFLUR] | – | – | 0.4 (≈ 0.85 µM) | 0.4 (≈ 0.85 µM) | 0.8 (≈ 1.7 µM) | 0.4 (≈ 0.85 µM) | 0.2 (≈ 0.425 µM) | 1.6 (≈ 3.4 µM) | 2 | Active |
| CC(=O)OCC1=C(C(=O)[O-])N2C(=O)[C@@H](NC(=O)CS(=O)(=O)c3ccccc3)[C@H]2SC1.[Na+] | > 13 | inactive | 1.6 | 50 | 13 | 13 | 25 | > 200 | – | Active |
| CS(=O)(=O)CC(=O)N[C@@H]1C(=O)N2C(C(=O)[O-])=C(CSc3cnn[nH]3)CS[C@H]12.[Na+] | > 13 | inactive | 1.6 | 13 | 6.2 | 6.2 | 13 | > 200 | – | Active |
| Cc1nnc(SCC2=C(C(=O)O)N3C(=O)[C@@H](NC(=O)Cn4cnnn4)[C@H]3SC2)s1 [CEFAZOLIN] | – | – | 0.4 (≈ 0.88 µM) | 0.8 (≈ 1.76 µM) | 0.8 (≈ 1.76 µM) | 0.8 (≈ 1.76 µM) | 0.4 (≈ 0.88 µM) | 1.6 (≈ 3.52 µM) | 6 | Active |
| Cn1cnnc1SCC1=C(C(=O)[O-])N2C(=O)[C@@H](NC(=O)CS(C)(=O)=O)[C@H]2SC1.[Na+] | > 13 | inactive | 3.1 | 6.2 | 6.2 | 3.1 | – | > 200 | 22 | Active |
| CC(=O)OCC1=C(C(=O)[O-])N2C(=O)[C@@H](NC(=O)C(C)S(C)(=O)=O)[C@H]2SC1.[Na+] (stereo partly drawn) | > 13 | inactive | 3.1 | 25 | 3.1 | 13 | 25 | 50 | – | Active |
